Consider 2 molecules from patent publication US20100028420A1, “CONTROLLED RELEASE COMPOSITION AND PROCESS” (3M Innovative Properties Company, priority 2006, published 2010).

This series in a line: Titration of dispersed solid with sodium hydroxide (pKa from titration curve). It is filed as physicochemical. To be noted: for pKa: dispersion of the solid in deionized water. The protocol: The Comparative Compound (1.0 g) was dispersed in deionized water (199 mL) using a shear mixer/emulsifier (Silverson Model L4R, Silverson Machines, Ltd., Waterside, Chesham, Bucks, England) for approximately 5 minutes. Cresol red indicator (0.04 weight percent in water; 4 drops) was added to aid in end point detection. Samples were titrated (using a 50 mL buret with 0.1 mL graduation) with rapid stirring to maintain suspension of dispersed solid in the liquid medium (0.1 N analytical standard grade sodium hydroxide from Mallinckrodt Baker, Phillipsburg, N.J.) over a period of 1-3 hours. The dispersion became clear after 2 equivalents of base had been added, indicating conversion of the Comparative Compound to a compound corresponding to the righthand structure above. […] At higher concentrations, a liquid crystalline phase potentially useful for encapsulation of guest molecules is formed between a pH of about 7 and a pH of about 8. This phase forms at a steep end point transition of the titration curve, where even a small addition of base caused a significant change in pH (indicating a need for careful monitoring and control of the amount of base addition for use of the Comparative Compound in, for example, the encapsulation of pH-sensitive guest molecules).
Folic acid (1.0 g) was dispersed in deionized water (199 mL) using a Silverson L4R shear mixer/emulsifier for approximately 5 minutes. Cresol red indicator (0.04 weight percent in water; 4 drops) was added to aid in end point detection. Samples were titrated (using a 50 mL buret with 0.1 mL graduation) with rapid stirring to maintain suspension of dispersed solid in the liquid medium during the addition of base (0.1 N analytical standard grade sodium hydroxide from Mallinckrodt Baker, Phillipsburg, N.J.). The dispersion became clear after 2 equivalents of base had been added.
Folic acid (2.0 g) was dispersed in deionized water (198 mL) using a Silverson L4R shear mixer/emulsifier for approximately 5 minutes. Cresol red indicator (0.04 weight percent in water; 4 drops) was added to aid in end point detection. Samples were titrated (using a 50 mL buret with 0.1 mL graduation) with rapid stirring to maintain suspension of dispersed solid in the liquid medium during the addition of base (0.2 N analytical standard grade sodium hydroxide from Mallinckrodt Baker, Phillipsburg, N.J.). The dispersion became clear after 2 equivalents of base had been added.

[1] abbreviates: 0.5 weight percent dispersion in deionized water, 0.1 N NaOH.

One may read the pKa as the pH at which an ionisable group is half protonated.

Molecules are shown by their SMILES. Read-outs that look alike come from different tables or passages of the source.

For `Cn1cc[n+](-c2nc(Nc3ccc(C(=O)O)cc3)nc(Nc3ccc(C(=O)O)cc3)n2)c1.[Cl-]` [Comparative Compound], under setting [1], the “first pKa” value was “about 3.2” and the “second pKa” value is “about 5.8”.

Regarding `Nc1nc(=O)c2nc(CNc3ccc(C(=O)N[C@@H](CCC(=O)O)C(=O)O)cc3)cnc2[nH]1` [Folic acid], the pKa by setting is: (0.5 weight percent dispersion in deionized water, 0.1 N NaOH, read-out: first pKa) around 5.8; (0.5 weight percent dispersion in deionized water, 0.1 N NaOH, read-out: second pKa) around 5.8; (1 weight percent dispersion in deionized water, 0.2 N NaOH, read-out: first pKa) around 6.1; (1 weight percent dispersion in deionized water, 0.2 N NaOH, read-out: second pKa) around 6.1.
